Laboratory results as given in ChEMBL document CHEMBL6071189, “Exploring the 1-(4-Nitrophenyl)-3-arylprop-2-en-1-one Scaffold for the Selective Inhibition of Monoamine Oxidase B” (ACS Med Chem Lett, 2024).

What was measured:
[1] = molecular target: T1, Amine oxidase [flavin-containing] A (Homo sapiens, UniProt P21397); test: Inhibition of recombinant human MAO-A using tyramine hydrochloride as substrate preincubated for 5 mins followed by substrate addition and measured after 5 mins in presence of horse radish peroxidase by Ampliflu Red based fluorescence microplate reader
T1 sequence (P21397 whole entry): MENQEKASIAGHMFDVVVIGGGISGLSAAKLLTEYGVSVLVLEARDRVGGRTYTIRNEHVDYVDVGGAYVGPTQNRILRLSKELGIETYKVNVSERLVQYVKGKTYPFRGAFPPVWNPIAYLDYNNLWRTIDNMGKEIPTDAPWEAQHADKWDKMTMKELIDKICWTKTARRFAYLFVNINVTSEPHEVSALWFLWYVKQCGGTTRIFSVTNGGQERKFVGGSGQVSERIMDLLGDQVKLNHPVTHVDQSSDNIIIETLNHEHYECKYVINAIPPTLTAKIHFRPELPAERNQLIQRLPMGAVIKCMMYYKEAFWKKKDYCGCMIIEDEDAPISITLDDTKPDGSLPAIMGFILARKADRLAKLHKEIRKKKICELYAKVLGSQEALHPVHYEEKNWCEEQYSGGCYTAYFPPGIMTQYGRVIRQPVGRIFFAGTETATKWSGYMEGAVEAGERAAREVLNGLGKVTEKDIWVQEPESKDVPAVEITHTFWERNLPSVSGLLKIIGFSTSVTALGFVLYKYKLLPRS

[2] = molecular target: T2, Amine oxidase [flavin-containing] B (Homo sapiens, UniProt P27338); test: Inhibition of recombinant human MAO-B using tyramine hydrochloride as substrate preincubated for 5 mins followed by substrate addition and measured after 5 mins in presence of horse radish peroxidase by Ampliflu Red based fluorescence microplate reader
T2 sequence (P27338 whole entry): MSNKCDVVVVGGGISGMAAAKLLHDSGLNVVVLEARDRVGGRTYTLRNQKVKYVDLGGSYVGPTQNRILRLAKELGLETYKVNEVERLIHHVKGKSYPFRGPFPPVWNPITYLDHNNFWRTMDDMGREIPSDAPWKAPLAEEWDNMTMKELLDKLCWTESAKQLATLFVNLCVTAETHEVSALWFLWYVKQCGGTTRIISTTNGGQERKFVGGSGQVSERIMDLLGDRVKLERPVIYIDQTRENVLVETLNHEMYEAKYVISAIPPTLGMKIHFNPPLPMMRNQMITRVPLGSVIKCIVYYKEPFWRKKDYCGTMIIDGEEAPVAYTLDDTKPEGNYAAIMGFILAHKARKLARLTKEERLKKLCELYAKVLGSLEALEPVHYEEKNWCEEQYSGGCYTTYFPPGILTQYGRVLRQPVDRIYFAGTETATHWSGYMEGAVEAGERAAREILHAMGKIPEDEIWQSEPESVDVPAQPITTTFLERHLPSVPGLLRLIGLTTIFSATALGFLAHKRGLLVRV

Homo sapiens = species on record: Homo sapiens; test: Selectivity index, ratio of IC50 for inhibition of recombinant human MAO-A to IC50 for inhibition of recombinant human MAO-B

IC50 [1]	IC50 [2]	Ratio IC50 (Homo sapiens)	SMILES
2700 nM	13 nM	210	Cc1ccc(/C=C/C(=O)c2ccc([N+](=O)[O-])cc2)cc1
7800 nM	48 nM	160	O=C(/C=C/c1ccc(F)cc1)c1ccc([N+](=O)[O-])cc1
27000 nM	93 nM	290	COc1ccc(/C=C/C(=O)c2ccc([N+](=O)[O-])cc2)cc1
13000 nM	21 nM	620	O=C(/C=C/c1ccc2ccccc2c1)c1ccc([N+](=O)[O-])cc1
52000 nM	10 nM	5200	O=C(/C=C/c1ccc(Cl)cc1)c1ccc([N+](=O)[O-])cc1
89000 nM	120 nM	740	Cc1ccccc1/C=C/C(=O)c1ccc([N+](=O)[O-])cc1
59000 nM	2.2 nM	27000	O=C(/C=C/c1ccc(Cl)c(Cl)c1)c1ccc([N+](=O)[O-])cc1
